This test relates to muscle stem cells (MuSCs). Kind of test: MuSC numbers in muscle of NR-fed young and aged mice (FACS, PAX7 staining). It is filed as in vivo, C57BL/6J mice. Conditions: for MuSC numbers (FACS): NR 400 mg/kg/day in diet for 6 weeks, FIG. 3A-C. Here is the method:
Animals. Young (1 month old) and aged (20-24 months old) C57BL/6JRj mice, purchased from Janvier Labs, and five weeks old male C57BL/10SnJ mice or C57BL/10ScSn-Dmdmdx/J, purchased from The Jackson Laboratory, were fed with pellets containing vehicle or NR (400 mg/kg/day) for 6-8 weeks. The pellets were prepared by mixing powdered chow diet (D12450B, Research Diets Inc.) with water or with NR dissolved in water. Pellets were dried under a laminar flow hood for 48 hours. All mice were housed in micro-isolator cages in a room illuminated from 7:00 am -7:00 pm with ad libitum access to diet and water. FACS based muscle stem cell isolation. Gastrocnemius, soleus, quadriceps, and tibialis anterior muscles from both limbs were excised and transferred into PBS on ice. All muscles were trimmed, minced and digested with 0.1 mg/ml of type II collagenase (Sigma) in PBS for 15 min at 37° C. Samples were then centrifuged at 750 g for 5 min and further digested in 1 mg/ml of collagenase/dispase (Roche) for 30 mins at 37° C. Muscle slurries were sequentially filtered through 100, 70 and 40 μm cell strainers. The isolated cells were then washed in washing buffer (PBS+2.5% FBS) then resuspended in 200 μl of washing buffer and immediately stained with antibodies, including the MuSC markers CD31 (1:800, eBioscience, eFluor450 conjugated); CD34 (1:200, eBioscience, eFluor660 conjugated); CD45 (1:200, eBioscience, eFluor450 conjugated); CD11b (1:400, eBioscience, eFluor450 conjugated); Sca-1 (1:1000, eBioscience, PE-Cy7 conjugated); and α7 integrin (1:300, MBL) for 30 min at 4° C. Secondary staining was performed with a mixture of goat anti-mouse antibody (1:800, Life technologies, Alexa Fluor 488 conjugated) and propidium Iodide (PI, Sigma) for 15 min at 4° C. in the dark. Stained cells were analysed and sorted using the FACSAria II instrument (BD Biosciences). Debris and dead cells were excluded by forward scatter, side scatter and PI gating. Cells were sorted either directly on slides for immunostaining and into TriPure (Roche) reagent for RNA extraction. Histology. […]

Each structure is given as a SMILES string.

For `NC(=O)c1ccc[n+]([C@@H]2O[C@H](CO)[C@@H](O)[C@H]2O)c1` [NR, nicotinamide riboside], the “MuSC numbers (FACS)” value reads like this: (aged mice) “attenuated the loss of MuSC numbers during aging”; (young mice) “evoking gains in younger mice”. Further, the “MuSC numbers by PAX7 staining of TA muscle” value (aged mice, NR diet, FIG. 3D) is on record as “increase in aged MuSC numbers was confirmed”.

The record behind these values is patent publication US10905704B2, “Agents and methods using thereof for the prevention and treatment of stem cell muscle disorders” (ECOLE POLYTECHNIQUE FEDERALE DE LAUSANNE (EPFL), priority 2015, dated 2021).
